# Results taken from US20240383932A1, “Phenol Prodrugs” (Lilac Therapeutics, Inc., priority 2023, published 2024).
# Like-named read-outs stand apart in the source and are kept apart here.
# Legend:
# [1] = Pharmacokinetics after single dose oral administration in rats; assay type: in vivo, male Sprague Dawley rats; conditions: rat; for half-life: po, 50 mg/kg
# Description: The pharmacokinetics of ivacaftor (50 mg/kg in organic and 0.25% Methyl Cellulose in water suspension) in male Sprague Dawley rats after single dose oral administration and compound 15 in 0.25% Methyl Cellulose in water suspension at 108 mg-eq/kg (50 mg/kg equivalent to free base) 324 mg-eq/kg (150 mg/kg equivalent to free base) 540 mg-eq/kg (250 mg/kg equivalent to free base) and 756 mg-eq/kg (350 mg/kg equivalent to free base) were investigated. […] The plasma concentration vs. time profile for these experiments are show in FIG. 3.
# [2] = Solubility in various buffers; assay type: physicochemical; conditions: for pH: pH of solubility sample
# Description: The solubility of crystalline compound 15 was measured in the various buffers.
# [3] = male, Sprague Dawley, plasma, ivacaftor 50 mg/kg, Crystalline Suspension (0.25% Methyl Cellulose in water)
smiles,measurement,setting,value
CC(C)OC(=O)[C@H](C)N[P@@](=O)(OCCN1CCOCC1)Oc1cc(NC(=O)c2c[nH]c3ccccc3c2=O)c(C(C)(C)C)cc1C(C)(C)C.O=C(O)CCC(=O)O [Compound 15],"dose dependence of exposure of ivacaftor, in words","[1]; crystalline aqueous suspension, dosed up to 350 mg/kg",dose proportional increase in the exposure of ivacaftor
same,"reduction in AUC with crystalline aqueous suspension, in words",[1]; dosed up to 350 mg/kg,such reduction was not observed
same,Observation after 24 hrs,[2]; FaSSIF.V2,Suspension
same,"solubility compared with ivacaftor, in words",[2]; FeSSIF and simulated gastric fluid,significant improvement in solubility
same,Observation after 24 hrs,[2]; FeSSIF.V2,Clear
same,Observation after 24 hrs,[2]; SGF,Clear
same,Observation after 24 hrs,[2]; Water,Slightly Hazy
same,solubility,"[2]; aqueous buffer, thermodynamic from solid, pH 6.8 PO4^3− buffer, read-out: Solubility",< 2 µg/mL
same,Observation after 24 hrs,[2]; pH 6.8 PO4^3− buffer,Suspension
same,pH,[2]; FaSSIF.V2,6.09
same,pH,[2]; FeSSIF.V2,5.83
same,pH,[2]; SGF,1.96
same,pH,[2]; Water,3.57
same,pH,[2]; pH 6.8 PO4^3− buffer,6.71
same,solubility,"[2]; simulated gastric fluid, thermodynamic from solid, SGF, read-out: Solubility",1430 µg/mL
same,solubility,"[2]; thermodynamic from solid, FaSSIF.V2, read-out: Solubility",86 µg/mL
same,solubility,"[2]; thermodynamic from solid, FeSSIF.V2, read-out: Solubility",1810 µg/mL
same,solubility,"[2]; water, thermodynamic from solid, read-out: Solubility",787 µg/mL
"CC(C)(C)c1cc(C(C)(C)C)c(NC(=O)c2c[nH]c3ccccc3c2=O)cc1O [ivacaftor, N-(2,4-di-tert-butyl-5-hydroxyphenyl)-4-oxo-1,4-dihydroquinoline-3-carboxamide, reference compound]",AUC(0-t),[1]; [3],14600 ng·h/mL
same,Cmax,[1]; [3],586 ng/mL
same,half-life,"[1]; male, Sprague Dawley, plasma, Organic Solution",10 h
same,half-life,[1]; [3],20 h
same,"reduction in AUC, crystalline suspension vs organic solution formulation",[1]; ivacaftor 50 mg/kg,92%
same,solubility,"[2]; FaSSIF.V2, fassif, thermodynamic from solid, read-out: Solubility",15 µg/mL
same,solubility,"[2]; FeSSIF.V2, fessif, thermodynamic from solid, read-out: Solubility",152 µg/mL
same,solubility,"[2]; FeSSIF.V2, ivacaftor as SDD, read-out: Solubility",600 µg/mL
same,solubility,"[2]; SGF, simulated gastric fluid, thermodynamic from solid, read-out: Solubility",21 µg/mL
same,solubility,[2]; Water,7 µg/mL
same,pH,[2]; FaSSIF.V2,6.35
same,pH,[2]; FeSSIF.V2,5.91
same,pH,[2]; SGF,2.20
same,pH,[2]; Water,7.35
same,pH,[2]; pH 6.8 PO4^3− buffer,6.71
same,solubility,"[2]; phosphate buffer, aqueous buffer, thermodynamic from solid, pH 6.8 PO4^3− buffer, read-out: Solubility",8 µg/mL
